This is an account of results in patent US6265426A, “Triazole derivatives” (Hoffmann-La Roche Inc., priority 1999, dated 2001).

SMILES strings stand for the structures. Structures can show the parent of a compound that is named as a salt.

T1 sequence (Q00960 27-1482, other chains not shown): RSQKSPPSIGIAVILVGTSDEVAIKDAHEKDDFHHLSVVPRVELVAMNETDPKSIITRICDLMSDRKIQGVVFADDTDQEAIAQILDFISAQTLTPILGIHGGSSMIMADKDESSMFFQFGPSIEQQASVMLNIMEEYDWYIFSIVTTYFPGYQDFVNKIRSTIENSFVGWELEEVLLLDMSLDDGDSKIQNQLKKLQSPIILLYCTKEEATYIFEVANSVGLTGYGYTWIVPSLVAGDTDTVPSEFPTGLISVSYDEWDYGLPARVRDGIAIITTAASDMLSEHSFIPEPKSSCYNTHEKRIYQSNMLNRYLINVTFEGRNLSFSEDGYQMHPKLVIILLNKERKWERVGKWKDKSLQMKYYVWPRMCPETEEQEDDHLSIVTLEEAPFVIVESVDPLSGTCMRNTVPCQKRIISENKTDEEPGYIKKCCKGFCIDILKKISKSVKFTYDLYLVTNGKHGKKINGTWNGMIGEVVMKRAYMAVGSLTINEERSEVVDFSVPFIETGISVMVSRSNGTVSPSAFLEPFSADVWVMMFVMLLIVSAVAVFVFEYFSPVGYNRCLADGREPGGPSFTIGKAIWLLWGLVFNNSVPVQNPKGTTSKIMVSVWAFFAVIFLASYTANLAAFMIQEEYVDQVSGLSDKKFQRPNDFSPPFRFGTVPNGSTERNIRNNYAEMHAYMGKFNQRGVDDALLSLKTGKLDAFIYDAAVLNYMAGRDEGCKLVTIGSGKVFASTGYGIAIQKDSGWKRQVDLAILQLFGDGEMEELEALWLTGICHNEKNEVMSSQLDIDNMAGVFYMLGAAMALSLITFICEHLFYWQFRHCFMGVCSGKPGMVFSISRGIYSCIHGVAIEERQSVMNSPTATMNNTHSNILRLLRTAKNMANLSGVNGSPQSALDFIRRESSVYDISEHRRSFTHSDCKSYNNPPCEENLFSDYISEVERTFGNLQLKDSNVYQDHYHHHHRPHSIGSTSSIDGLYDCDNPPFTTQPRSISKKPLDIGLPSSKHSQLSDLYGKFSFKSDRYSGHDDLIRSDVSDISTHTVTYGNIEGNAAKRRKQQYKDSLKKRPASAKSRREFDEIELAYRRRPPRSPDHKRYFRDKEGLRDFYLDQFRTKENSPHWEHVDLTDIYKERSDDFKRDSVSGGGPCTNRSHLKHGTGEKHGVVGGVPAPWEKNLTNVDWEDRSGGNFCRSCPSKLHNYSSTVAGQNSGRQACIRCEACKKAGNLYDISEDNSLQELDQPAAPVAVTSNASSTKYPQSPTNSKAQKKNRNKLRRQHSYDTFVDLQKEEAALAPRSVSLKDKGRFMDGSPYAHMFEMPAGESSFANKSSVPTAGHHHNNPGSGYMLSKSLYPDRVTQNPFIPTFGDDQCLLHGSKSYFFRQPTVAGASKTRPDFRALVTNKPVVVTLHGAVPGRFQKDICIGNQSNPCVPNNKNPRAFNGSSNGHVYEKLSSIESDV

The experiment has as its target T1, NMDA receptor (Rattus norvegicus, UniProt P35439+Q00960).
T1 construct: Membranes were prepared by homogenization of the whole brain minus cerebellum and medulla oblongata; from tissue; host or cells: rat whole brain minus cerebellum and medulla oblongata, membranes
Description: [3H] Compound A (R-(R*,S*)]-α-(4-Hydroxy-phenyl)-β-methyl-4-(phenyl-methyl)-1-piperidine propanol) binding, displacement on rat brain membranes (NMDA receptor subtype). The note with it: displacement of 5 nM [3H] Compound A, rat whole brain minus cerebellum and medulla oblongata membranes, pH 7.4, 2 hours at 4° C. As to the method: ^3 H R-(R*,S*)]-α-(4-Hydroxy-phenyl)-β-methyl-4-(phenyl-methyl)-1-piperidine propanol (compound A) binding
Male Fullinsdorf albino rats weighing between 150-200 g were used. Membranes were prepared by homogenization of the whole brain minus cerebellum and medulla oblongata with a Polytron (10.000 rpm, 30 seconds), in 25 volumes of a cold Tris-HCl 50 mM, EDTA 10 mM, pH 7.1 buffer. The homogenate was centrifuged at 48.000 g for 10 minutes at 4° C. The pellet was resuspended using the Polytron in the same volume of buffer and the homogenate was incubated at 37° C. for 10 minutes. After centrifugation the pellet was homogenized in the same buffer and frozen at -80° C. for at least 16 hours but not more than 10 days. For the binding assay the homogenate was thawed at 37° C., centrifuged and the pellet was washed three times as above in a Tris-HCl 5 mM, pH 7.4 cold buffer. The final pellet was resuspended in the same buffer and used at a final concentration of 200 μg of protein/ml.
Compound A binding experiments were performed using a Tris-HCl 50 mM, pH 7.4 buffer. For displacement experiments 5 nM of Compound A were used and non specific binding was measured using 10 μM of tetrahydroisoquinoline and usually it accounts for 10% of the total. The incubation time was 2 hours at 4° C. and the assay was stopped by filtration on Whatmann GF/B glass fiber filters (Unifilter-96, Packard, Zutrich, Switzerland). The filters were washed 5 times with cold buffer. The radioactivity on the filter was counted on a Packard Top-count microplate scintillation counter after addition of […] of microscint 40 (Canberra Packard S.A., Zurich, Switzerland).
The effects of compounds were measured using a minimum of 8 concentrations and repeated at least once. The pooled normalized values were analyzed using a non-linear regression calculation program which provide IC50 with their relative upper and lower 95% confidence limits (RS1, BBN, USA). The IC50 value refers to the concentration of a compound needed to give 50% inhibition, i.e., the concentration at which 50% of the ligands bonded to the recept or are displaced.
Concentrations higher than 10 μM were not tested.
Consider `COc1ccc(-c2nc(-c3cccc(CN)c3)n[nH]2)cc1` [Example 73, 3-[5-(4-Methoxy-phenyl)-1H-[1,2,4]triazol-3-yl]-benzylamine hydrochloride], for which the IC50 stood at 8.3 nM.
The same measure for `Clc1ccc(-c2nc(-c3cccc(CN4CCCC4)c3)n[nH]2)cc1` [Example 49, 5-(4-Chloro-phenyl)-3-(3-pyrrolidin-1-ylmethyl-phenyl)-1H-[1,2,4]triazole hydrochloride]: 87 nM; for `c1cc(CN2CCCC2)cc(-c2n[nH]c(-c3ccc4ccccc4c3)n2)c1` [Example 25, 5-Naphthalen-2-yl-3-(3-pyrrolidin-1-ylmethyl-phenyl)-1H-[1,2,4]triazole hydrochloride]: 1000 nM.
The same measure for `COc1ccc(-c2nc(-c3cccc(CN4CCCC4)c3)n[nH]2)cc1` [Example 51, 5-(4-Methoxy-phenyl)-3-(3-pyrrolidin-1-ylmethyl-phenyl)-1H-[1,2,4]triazole hydrochloride]: 58 nM; for `CCN(CC)Cc1cccc(-c2n[nH]c(-c3ccc(OC)cc3)n2)c1` [Example 52, Diethyl-{3-[5-(4-methoxy-phenyl)-1H-[1,2,4]triazol-3-yl]-benzyl}-amine hydrochloride]: 330 nM.

For orientation: IC50 means the concentration that inhibits the measured activity by half. A high value points to weaker potency in that assay.
